According to PMC6895048, “4,5-Disubstituted 1,2,3-triazoles: Effective Inhibition of Indoleamine 2,3-Dioxygenase 1 Enzyme Regulates T cell Activity and Mitigates Tumor Growth” (Scientific Reports, 2019):
“And” between values parts separate entries of the source, which are not always exact repeats. Identical values can stand only once.

Assays:
[1] = target: T1, purified human IDO1 enzyme (Homo sapiens, UniProt P14902); experiment: IDO1 inhibition assay by the spectrometric method (pDMAB); assay type: biochemical; details: for IC50: purified human IDO1, spectrophotometric, mean of three independent assays, read-out: hIDO1 IC50; for fold stronger IDO1 inhibition than MMG-0358: similar experimental conditions
T1 construct: made in house; host or cells: Escherichia coli M15 (pQE30 vector with pREP4 plasmid)
Method: Both IDO1 and TDO inhibition assays were performed according to the reported procedures[26]–[30],[50],[51]. […] In the assay system, the minimum and maximum amount of DMSO was 0.02% and 2%, respectively. […] The concentration of the inhibitors was varied from 100 µM to 32 nM by serial dilution technique. Then, the reaction was quenched with 100 µL of 30% (w/v) trichloroacetic acid and was incubated for further 15 minutes at 65 °C. After that, 2% (w/v) pDMAB was used to quantify the amount of kynurenine formation. The absorbance of the reaction mixture was recorded by UV-Vis spectrophotometer at 480 nm.

[2] = Serum binding by Trp-fluorescence quenching; assay type: in vitro ADME, human; details: qualitative; compared with compound 4i
Method: Tryptophan fluorescence measurements of the human serum were performed in the presence of compounds on a Fluoromax-4 spectrofluorometer at room temperature. For fluorescence measurements, 30 µL of 100% human serum and varying concentrations (0–220 µM) of compounds were incubated in 10 mM PBS buffer, pH 7.4. The solution was excited at 290 nm, and emission spectra were recorded from 300 to 560 nm. The resulting tryptophan emission spectra for each concentration of the compounds were plotted.

IDO1 [3] = target: T2, IDO1 (Homo sapiens, UniProt P14902); experiment: Kynurenine assay by HPLC analysis, IDO1; assay type: biochemical; design: made in house; host or cells: Escherichia coli M15 (pQE30 vector with pREP4 plasmid)
Method: HPLC based IDO1, and TDO inhibition assays were performed according to the earlier reported procedure[19],[27]–[30]. The reaction mixture (250 µL) contained KPB (100 mM, pH 6.5 for IDO1 and 50 mM, pH 8.0 for TDO), sodium ascorbate (20 mM), methylene blue (10 µM), catalase (240 nM, from bovine liver, Sigma), L-Trp (150 µM), purified enzyme (40 nM for IDO1 and 25 nM for TDO), DMSO (0.05%, v/v), Triton-X 100 (0.01%, v/v) and inhibitors. The concentration of the compound was varied from 100 µM to 32 nM by serial dilution. The mixture was incubated at 37 °C for 1 hour in the absence and presence of the synthesized compounds. The reaction was then quenched using 50 µL of 30% (w/v) trichloroacetic acid and incubated at 65 °C for additional 15 minutes to allow complete hydrolysis of N-formylkynurenine to kynurenine. After that, the mixture was centrifuged at 10,000 rpm for 10 minutes, and 100 µL of clear solution was transferred to another tube for HPLC analysis. Then, 20 µL of the reaction mixture was then injected through Ascentis® express C18, 2.7 µm HPLC column with a flow rate of 0.5 mL/minute of the mobile phase containing 50% sodium citrate buffer (40 mM, pH 2.25) and 50% methanol (v/v) with 400 µM SDS. The area under the curve at 365 nm chromatogram corresponding to the kynurenine formation was recorded, and % of inhibition was calculated using standard curve prepared with pure kynurenine (from Sigma) under similar experimental conditions.

IDO1 [4] = target: T2, IDO1; experiment: Circular dichroism analysis of IDO1 enzyme; design: made in house; host or cells: Escherichia coli M15 (pQE30 vector with pREP4 plasmid)
Method: The Circular Dichroism (CD) spectra of the IDO1 enzyme in the absence or presence of compounds were recorded with a Jasco-810-spectropolarimeter according to the reported procedure[37],[38]. Samples of rIDO1 (2 μM) were prepared in 10 mM KPB buffer (pH 6.5) in a […] quartz cuvette. Spectra were recorded by varying the concentration of the compound (250 nM to 4 µM) using a 1 mL quartz cuvette of 1 cm path length with a Jasco J-1500 spectropolarimeter at 17 °C. Also the spectra were collected at a scan rate […] and 1 nm bandwidth from 200 nm to 260 nm with three times scan for averaging. All final spectra were corrected for buffer background CD signals. The % of the secondary structures of the IDO1 enzyme was analyzed using the inbuilt software of the instrument.

EAC solid tumor = EAC solid tumor model in vivo; design: species or system female Swiss albino mice; details: for tumor growth inhibition (TGI): 5 mg/kg body weight, intravenously at alternate days, female Swiss albino mice; for CD8+ T cell population in vivo solid tumors: flow cytometry of tumor tissue post sacrifice
Method: Female Swiss albino mice of age 6 weeks (weight = 20 gm) were selected for the experiments. Animals were housed in animal facility room, Department of Zoology, University of Calcutta at 25 ± 2 °C, relative humidity of nearly 45 ± 5% with alternative 12 hours day/ night cycle with access of food and water. All the experiments were carried out as per guideline of the Committee for the Purpose of Control and Supervision of Experimental Animals (CPCSEA), Government of India (Registration No: 885/GO/Re/S/05/CPCSEA) and approved by the Institutional animal ethical committee (IAEC), University of Calcutta.
Ehrlich ascites carcinoma (EAC) cells were maintained in the ascetic form in female Swiss albino mice by intraperitoneal transplantation every 10th day on each mice. The ascetic fluid was drawn on 7th day on implantation according to previously described protocol. Isolated cells were diluted in sterile PBS. 2 × 10^6 cells were then implanted on thigh muscle of all the animals selected for experiment.
Female Swiss albino mice were divided into four groups (n = 6 each group). Post inoculation of the cells in thigh muscle on day 0 mice in their respective group was allowed to treat for 5 days on every alternate day at treatment of 5 mg/ kg body weight described below. All the mice were sacrificed on day 10.
Tumor tissues post sacrifice were digested in collagenase IV medium for 2 hours. The tissues were passed through wire mesh and single-cell strainer. Then the cells were washed in PBS, and immunophenotyping was performed, and cells were stained against APC-CD8 for finding infiltrated CD8 T cell populations by flow cytometry analysis.

[5] = HPLC based IDO1 inhibition assay

T2 sequence (P14902 whole entry): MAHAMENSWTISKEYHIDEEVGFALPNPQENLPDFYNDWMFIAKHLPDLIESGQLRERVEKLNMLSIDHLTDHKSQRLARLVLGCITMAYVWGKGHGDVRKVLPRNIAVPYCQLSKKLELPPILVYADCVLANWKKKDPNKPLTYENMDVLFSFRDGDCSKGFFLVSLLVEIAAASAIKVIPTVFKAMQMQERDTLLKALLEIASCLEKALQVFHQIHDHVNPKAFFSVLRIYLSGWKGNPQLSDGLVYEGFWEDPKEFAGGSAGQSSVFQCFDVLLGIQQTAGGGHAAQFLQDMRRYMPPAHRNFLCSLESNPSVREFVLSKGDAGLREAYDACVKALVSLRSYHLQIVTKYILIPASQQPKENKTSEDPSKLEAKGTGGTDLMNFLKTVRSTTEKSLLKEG
T1 sequence (P14902 whole entry): as above

IC50 [1]	IC50 (IDO1 [3]; [5])	% of Secondary structural elements, Beta (IDO1 [4]; compound 0.25 µM)	% of Secondary structural elements, Helix (IDO1 [4]; compound 0.25 µM)	% of Secondary structural elements, Random (IDO1 [4]; compound 0.25 µM)	% of Secondary structural elements, Turn (IDO1 [4]; compound 0.25 µM)	% of Secondary structural elements, Beta (IDO1 [4]; compound 0.5 µM)	% of Secondary structural elements, Helix (IDO1 [4]; compound 0.5 µM)	% of Secondary structural elements, Random (IDO1 [4]; compound 0.5 µM)	% of Secondary structural elements, Turn (IDO1 [4]; compound 0.5 µM)	% of Secondary structural elements, Beta (IDO1 [4]; compound 1 µM)	% of Secondary structural elements, Helix (IDO1 [4]; compound 1 µM)	% of Secondary structural elements, Random (IDO1 [4]; compound 1 µM)	% of Secondary structural elements, Turn (IDO1 [4]; compound 1 µM)	% of Secondary structural elements, Beta (IDO1 [4]; compound 2 µM)	% of Secondary structural elements, Helix (IDO1 [4]; compound 2 µM)	% of Secondary structural elements, Random (IDO1 [4]; compound 2 µM)	% of Secondary structural elements, Turn (IDO1 [4]; compound 2 µM)	% of Secondary structural elements, Beta (IDO1 [4]; compound 4 µM)	% of Secondary structural elements, Helix (IDO1 [4]; compound 4 µM)	SMILES	further results
545 ± 29 nM	396 ± 10 nM	0%	28%	37.9%	34.1%	0%	28.7%	36.1%	35.2%	0%	30.2%	33.5%	36.3%	0%	30.5%	33.8%	35.7%	0%	30.5%	CCOC(=O)c1n[nH]nc1-c1ccc(F)c(F)c1 [Compound 2i]	interaction with human serum proteins (Trp-fluorescence quenching) [2]: more strongly; % Of inhibition for IDO1 enzyme (IDO1 [3]; HPLC, 32 nM): 21%; % Of inhibition for IDO1 enzyme (IDO1 [3]; HPLC, 160 nM): 29%; % Of inhibition for IDO1 enzyme (IDO1 [3]; HPLC, 800 nM): 59%; % Of inhibition for IDO1 enzyme (IDO1 [3]; HPLC, 4 µM): 60%; % Of inhibition for IDO1 enzyme (IDO1 [3]; HPLC, 20 µM): 78%; % Of inhibition for IDO1 enzyme (IDO1 [3]; HPLC, 100 µM): 80%; % of Secondary structural elements, Random (IDO1 [4]; compound 4 µM): 35.7%; % of Secondary structural elements, Turn (IDO1 [4]; compound 4 µM): 33.8%
94 ± 4 nM	114 ± 10 nM	0.7%	27.8%	37.6%	33.9%	0%	28%	38.1%	33.9%	0%	27.6%	40.6%	31.8%	0%	29.8%	42.6%	27.6%	0%	31.8%	O=C(N/C(Cc1ccc(O)cc1)=N\O)c1n[nH]nc1-c1ccc(F)c(F)c1 [Compound 4i]	tumor growth inhibition (TGI) (EAC solid tumor): 79–96%; CD8+ T cell population in vivo solid tumors (EAC solid tumor): induces CD8+ T cell population; % Of inhibition for IDO1 enzyme (IDO1 [3]; HPLC, 32 nM): 13%; % Of inhibition for IDO1 enzyme (IDO1 [3]; HPLC, 160 nM): 34%; % Of inhibition for IDO1 enzyme (IDO1 [3]; HPLC, 800 nM): 52%; % Of inhibition for IDO1 enzyme (IDO1 [3]; HPLC, 4 µM): 68%; % Of inhibition for IDO1 enzyme (IDO1 [3]; HPLC, 20 µM): 79%; % Of inhibition for IDO1 enzyme (IDO1 [3]; HPLC, 100 µM): 84%; IC50 (IDO1 [3]; kynurenine assay): 60 to 115 nM; % of Secondary structural elements, Random (IDO1 [4]; compound 4 µM): 38.8%; % of Secondary structural elements, Turn (IDO1 [4]; compound 4 µM): 29.4%
92 ± 12 nM	59 ± 6 nM	3.6%	26.8%	34.3%	35.3%	0%	30.6%	31.2%	38.2%	0%	28%	33.9%	38.1%	0%	23.8%	46.0%	30.2%	0%	29.1%	NS(=O)(=O)NCCNC(=O)c1n[nH]nc1-c1ccc(F)c(F)c1 [Compound 4k]	inhibition at 4 µM ([1]; 4 μM compound): 71 to 86%; inhibition at 100 µM ([1]; 100 μM compound): 82 to 93%; fold stronger IDO1 inhibition than MMG-0358 [1]: 3 fold; interaction with human serum proteins (Trp-fluorescence quenching) [2]: more strongly; tumor growth inhibition (TGI) (EAC solid tumor): 79–96%; CD8+ T cell population in vivo solid tumors (EAC solid tumor): induces CD8+ T cell population; inhibition at 0.032 µM (IDO1 [3]; HPLC, 32 nM): 14%; inhibition at 0.16 µM (IDO1 [3]; HPLC, 160 nM): 45%; inhibition at 0.8 µM (IDO1 [3]; HPLC, 800 nM): 69%; inhibition at 4 µM (IDO1 [3]; HPLC, 4 µM): 77%; inhibition at 20 µM (IDO1 [3]; HPLC, 20 µM): 86%; inhibition at 100 µM (IDO1 [3]; HPLC, 100 µM): 84%; IC50 (IDO1 [3]; kynurenine assay): 60 to 115 nM; % of Secondary structural elements, Random (IDO1 [4]; compound 4 µM): 36.4%; % of Secondary structural elements, Turn (IDO1 [4]; compound 4 µM): 34.5%
111 ± 5 nM	119 ± 13 nM	0%	30.1%	35.8%	34.1%	0%	29.4%	36.8%	33.8%	0%	29.8%	35.8%	34.5%	0%	28.5%	40.8%	30.7%	0%	30.7%	NC(=O)c1n[nH]nc1-c1ccc(F)c(F)c1 [Compound 3i]	fold stronger IDO1 inhibition than MMG-0358 [1]: 3 fold; interaction with human serum proteins (Trp-fluorescence quenching) [2]: more strongly; tumor growth inhibition (TGI) (EAC solid tumor): 79–96% and 96%; CD8+ T cell population in vivo solid tumors (EAC solid tumor): induces CD8+ T cell population; % Of inhibition for IDO1 enzyme (IDO1 [3]; HPLC, 32 nM): 27%; % Of inhibition for IDO1 enzyme (IDO1 [3]; HPLC, 160 nM): 48%; % Of inhibition for IDO1 enzyme (IDO1 [3]; HPLC, 800 nM): 69%; % Of inhibition for IDO1 enzyme (IDO1 [3]; HPLC, 4 µM): 76%; % Of inhibition for IDO1 enzyme (IDO1 [3]; HPLC, 20 µM): 84%; % Of inhibition for IDO1 enzyme (IDO1 [3]; HPLC, 100 µM): 83%; % of Secondary structural elements, Random (IDO1 [4]; compound 4 µM): 60.4%; % of Secondary structural elements, Turn (IDO1 [4]; compound 4 µM): 8.9%
